Test results reported in PMC5267425, “Identification of small molecule modulators of HIV-1 Tat and Rev protein accumulation” (Retrovirology, 2017).

Tested on: cellular gene expression in HeLa rtTA HIV∆Mls cells

Cc1cc(NCc2cccnc2)n2ncc(-c3ccc(Cl)cc3)c2n1 [Compound 791, 3-(4-chlorophenyl)-5-methyl-N-(3-pyridinylmethyl)pyrazolo[1,5-a]pyrimidin-7-amine]
AARS Mean fold change: 2.833
ABCC3 Mean fold change: 2.692
ABCG1 Mean fold change: 3.311
ABHD6 Mean fold change: 1.566
AC004490.2 Mean fold change: 2.204
AC006486.1 expression fold change: 0.690
AC008763.1 expression fold change: 0.679
AC009133.2 Mean fold change: 1.588
AC010442.1 Mean fold change: 1.579
AC013356.3 expression fold change: 1.345
AC037487.1 expression fold change: 1.347
AC068020.2 Mean fold change: 2.561
AC092295.7 expression fold change: 0.786
AC135352.1 Mean fold change: 1.465
AC138904.2 Mean fold change: 2.431
ACADVL Mean fold change: 1.427
ACAP3 expression fold change: 0.896
ACER2 expression fold change: 1.385
ACN9 expression fold change: 1.202
ACOT9 expression fold change: 0.729
ACTN1 expression fold change: 0.801
ADD1 expression fold change: 0.880
ADI1 expression fold change: 0.759
ADO expression fold change: 1.398
AGPAT2 expression fold change: 0.738
AGPAT9 Mean fold change: 1.761
AGXT2L2 Mean fold change: 1.839
AHCTF1 expression fold change: 1.155
AIDA expression fold change: 1.199
AIFM1 expression fold change: 1.118
AKIRIN2 expression fold change: 1.270
ALDH2 Mean fold change: 1.928
ALDOC expression fold change: 0.728
ALG5 expression fold change: 1.288
ALKBH8 expression fold change: 1.320
ALX1 expression fold change: 1.051
ANKHD1 expression fold change: 1.136
ANKRD40 expression fold change: 1.260
ANKRD50 expression fold change: 1.377
ANKS1A expression fold change: 0.869
ANXA5 expression fold change: 0.844
ANXA6 expression fold change: 0.632
AP2M1 expression fold change: 0.841
AP3S2 expression fold change: 1.386
AP000926.1 Mean fold change: 1.726
APBA3 expression fold change: 1.129
APOBEC3B expression fold change: 0.520
ARF1 expression fold change: 0.787
ARF3 expression fold change: 0.882
ARG2 Mean fold change: 3.609
ARHGAP11A expression fold change: 0.778
ARHGAP26 Mean fold change: 1.819
ARHGEF2 Mean fold change: 2.222
ARHGEF4 Mean fold change: 1.690
ARL4D expression fold change: 1.406
ARL17B Mean fold change: 1.427
ARMC10 expression fold change: 1.383
ARNTL Mean fold change: 1.815
ARPC5 expression fold change: 0.694
ARSJ expression fold change: 1.309
ASB7 expression fold change: 1.181
ASB8 expression fold change: 1.184
ASCC1 expression fold change: 1.134
ASNS Mean fold change: 5.898
ASNSD1 expression fold change: 1.208
ATF4 Mean fold change: 1.683
ATG4B expression fold change: 1.240
ATG12 expression fold change: 1.178
ATG16L1 expression fold change: 1.132
ATIC expression fold change: 1.115
ATP2B1 Mean fold change: 1.479
ATP5H expression fold change: 1.145
ATP6AP1L Mean fold change: 1.979
ATP6V0A1 expression fold change: 0.795
ATP6V1B2 expression fold change: 1.261
ATP8B1 expression fold change: 0.527
ATXN7L2 expression fold change: 1.076
AUP1 expression fold change: 1.231
AVL9 expression fold change: 1.338
AXIN1 expression fold change: 1.266
B3GNT1 expression fold change: 0.674
B3GNT5 Mean fold change: 2.008
B4GALT5 expression fold change: 1.380
BAT3 expression fold change: 0.841
BAZ1B expression fold change: 1.159
BCAR1 expression fold change: 0.869
BCAR3 Mean fold change: 1.528
BCL7A expression fold change: 1.302
BCOR expression fold change: 0.835
BCORL1 expression fold change: 0.826
BEST1 Mean fold change: 1.710
BHLHB9 expression fold change: 0.836
BICD1 expression fold change: 1.280
BIVM expression fold change: 1.241
BMP2K expression fold change: 1.246
BMPR1B expression fold change: 0.758
BRWD2 expression fold change: 1.126
BST2 expression fold change: 0.606
BTRC expression fold change: 1.086
BUD13 expression fold change: 1.160
C1D expression fold change: 0.907
C1orf27 expression fold change: 1.263
C1orf43 Mean fold change: 1.578
C1orf103 expression fold change: 1.312
C1orf109 expression fold change: 1.133
C1orf115 expression fold change: 0.712
C1orf131 expression fold change: 1.232
C2orf18 Mean fold change: 2.057
C2orf44 expression fold change: 1.212
C2orf49 expression fold change: 1.330
C2orf60 Mean fold change: 1.552
C3orf19 expression fold change: 1.302
C3orf59 expression fold change: 0.622
C4orf23 expression fold change: 1.124
C4orf27 expression fold change: 1.269
C4orf32 Mean fold change: 1.456
C4orf43 expression fold change: 1.083
C5orf13 expression fold change: 0.675
C5orf15 expression fold change: 0.799
C5orf30 expression fold change: 1.191
C5orf37 expression fold change: 1.270
C5orf45 expression fold change: 1.325
C5orf51 expression fold change: 1.347
C6orf48 Mean fold change: 2.042
C6orf145 expression fold change: 0.730
C7orf23 expression fold change: 1.243
C7orf25 expression fold change: 1.354
C7orf27 expression fold change: 0.879
C7orf42 expression fold change: 0.864
C7orf44 expression fold change: 1.193
C9orf3 expression fold change: 0.575
C9orf6 expression fold change: 1.317
C9orf46 expression fold change: 1.230
C9orf114 expression fold change: 1.133
C9orf163 expression fold change: 0.820
C10orf76 expression fold change: 0.797
C10orf114 expression fold change: 0.622
C11orf17 Mean fold change: 1.495
C11orf57 expression fold change: 1.379
C11orf73 expression fold change: 1.274
C12orf35 expression fold change: 1.357
C12orf41 Mean fold change: 1.427
C12orf65 expression fold change: 1.231
C12orf73 expression fold change: 1.310
C13orf23 expression fold change: 1.356
C14orf79 Mean fold change: 1.679
C14orf104 expression fold change: 1.167
C14orf147 expression fold change: 0.683
C14orf167 Mean fold change: 1.721
C15orf61 expression fold change: 1.088
C16orf63 expression fold change: 1.203
C16orf72 expression fold change: 1.363
C17orf75 expression fold change: 1.209
C17orf80 expression fold change: 1.234
C18orf19 expression fold change: 1.208
C18orf25 expression fold change: 1.336
C18orf45 expression fold change: 1.218
C19orf28 expression fold change: 0.696
C19orf55 expression fold change: 1.216
C19orf57 Mean fold change: 2.062
C20orf29 expression fold change: 0.759
C20orf177 expression fold change: 1.123
C22orf23 Mean fold change: 1.568
CA5B Mean fold change: 1.804
CALD1 expression fold change: 0.520
CAP2 expression fold change: 0.518
CAPN1 expression fold change: 0.764
CARS Mean fold change: 2.332
CASC5 expression fold change: 0.767
CASP8 expression fold change: 1.182
CAT Mean fold change: 1.598
CAV2 expression fold change: 0.581
CC2D2A expression fold change: 0.869
CCBL2 expression fold change: 1.248
CCDC22 expression fold change: 1.134
CCDC25 expression fold change: 1.260
CCDC40 Mean fold change: 1.891
CCDC41 expression fold change: 1.182
CCDC55 expression fold change: 1.136
CCDC85C expression fold change: 0.665
CCDC91 Mean fold change: 1.516
CCDC92 expression fold change: 1.319
CCDC99 expression fold change: 0.607
CCDC102A expression fold change: 0.591
CCDC150 expression fold change: 0.840
CCNB1IP1 Mean fold change: 1.940
CCNJ expression fold change: 1.250
CCNT2 expression fold change: 1.170
CD276 expression fold change: 0.827
CDADC1 expression fold change: 1.201
CDC42EP3 expression fold change: 0.641
CDK1 expression fold change: 0.737
CDK4 expression fold change: 1.239
CDK8 expression fold change: 1.082
CDK17 expression fold change: 1.247
CDKL1 expression fold change: 0.840
CDKN2C expression fold change: 0.598
CEBPG Mean fold change: 3.507
CEP70 expression fold change: 0.860
CES2 Mean fold change: 1.537
CGN expression fold change: 0.519
CGRRF1 Mean fold change: 1.453
CHAC1 Mean fold change: 6.989
CHCHD4 expression fold change: 1.327
CHN1 expression fold change: 0.798
CHN2 expression fold change: 1.345
CLCN2 expression fold change: 1.278
CLCN5 Mean fold change: 1.584
CLEC2D Mean fold change: 1.905
CLIC4 Mean fold change: 1.468
CLPTM1L expression fold change: 0.747
CLUAP1 Mean fold change: 1.416
CNN2 expression fold change: 0.712
CNNM3 expression fold change: 0.809
CNOT4 expression fold change: 1.191
COG1 expression fold change: 1.328
COG8 expression fold change: 1.183
COL4A3BP Mean fold change: 1.572
COMMD1 expression fold change: 0.832
COMMD4 expression fold change: 0.856
COPS7B Mean fold change: 1.473
COX7A2L expression fold change: 1.194
COX7A2 expression fold change: 0.949
COX19 expression fold change: 1.369
CPD Mean fold change: 1.588
CREB1 expression fold change: 1.234
CRTC3 expression fold change: 0.714
CSE1L expression fold change: 0.867
CSGALNACT2 expression fold change: 1.343
CSNK1A1 Mean fold change: 1.528
CSNK2A1 expression fold change: 1.245
CSRNP2 expression fold change: 1.269
CSRP2BP Mean fold change: 1.435
CSRP2 expression fold change: 0.574
CST3 expression fold change: 1.145
CTC-241N9.1 Mean fold change: 1.850
CTD-2526A2.1 Mean fold change: 1.524
CTH Mean fold change: 2.646
CTNND1 expression fold change: 0.683
CTSL1 Mean fold change: 1.489
CTTNBP2 expression fold change: 0.629
CUEDC2 expression fold change: 1.278
CWC25 expression fold change: 1.169
CXADR expression fold change: 1.102
CYFIP1 expression fold change: 0.887
CYP2R1 Mean fold change: 1.818
CYP2S1 expression fold change: 1.098
CYTH3 expression fold change: 0.536
DAB2 expression fold change: 0.623
DAG1 expression fold change: 0.608
DAGLB expression fold change: 0.867
DBF4B expression fold change: 0.760
